According to PubChem BioAssay (NCI):
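Where inhibition never reached the appropriate level, the endpoint shown equals the highest concentration tested. Otherwise, values were interpolated linearly from a five-concentration, 48-hour dose response in 96-well plates. TGI: concentration producing complete growth inhibition.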

Experiments:
Test in all cases: NCI anticancer screen, dose series, 48 h
A549 NSCLC = system: A549 NSCLC
MDA-N = system: MDA-N
OVCAR-8 ovarian = system: OVCAR-8 ovarian
CCRF-CEM leukemia = system: CCRF-CEM leukemia
NCI-H522 lung = system: NCI-H522 lung
ACHN renal = system: ACHN renal
K-562 leukemia = system: K-562 leukemia
IGROV1 ovarian = system: IGROV1 ovarian
HT29 colon = system: HT29 colon
SF-539 CNS = system: SF-539 CNS
U251 CNS = system: U251 CNS
HCT-116 colon = system: HCT-116 colon
TK-10 renal = system: TK-10 renal
EKVX NSCLC = system: EKVX NSCLC
MCF7 breast = system: MCF7 breast
SK-MEL-5 melanoma = system: SK-MEL-5 melanoma
NCI-H23 lung = system: NCI-H23 lung
M14 melanoma = system: M14 melanoma
UACC-257 melanoma = system: UACC-257 melanoma
DU-145 prostate = system: DU-145 prostate
CAKI-1 renal = system: CAKI-1 renal
SW-620 colon = system: SW-620 colon
HCC-2998 colon = system: HCC-2998 colon
KM12 colon = system: KM12 colon
HCT-15 colon = system: HCT-15 colon
MOLT-4 leukemia = system: MOLT-4 leukemia
A498 renal = system: A498 renal
T-47D breast = system: T-47D breast
NCI-H226 lung = system: NCI-H226 lung
HS 578T breast = system: HS 578T breast
786-0 renal = system: 786-0 renal
NCI/ADR-RES ovarian = system: NCI/ADR-RES ovarian
SK-MEL-28 melanoma = system: SK-MEL-28 melanoma
PC-3 prostate = system: PC-3 prostate
MDA-MB-435 = system: MDA-MB-435
MALME-3M melanoma = system: MALME-3M melanoma
NCI-H460 lung = system: NCI-H460 lung
SF-295 CNS = system: SF-295 CNS
HOP-62 NSCLC = system: HOP-62 NSCLC
SF-268 CNS = system: SF-268 CNS
OVCAR-3 ovarian = system: OVCAR-3 ovarian
HOP-92 NSCLC = system: HOP-92 NSCLC
MDA-MB-231 breast = system: MDA-MB-231 breast
SN12C renal = system: SN12C renal
LOX IMVI melanoma = system: LOX IMVI melanoma
BT-549 breast = system: BT-549 breast
RPMI-8226 leukemia = system: RPMI-8226 leukemia
HL-60(TB) leukemia = system: HL-60(TB) leukemia
UO-31 renal = system: UO-31 renal
SNB-19 CNS = system: SNB-19 CNS

Measured: TGI

O=C1CC(CC(O)C(O)CO)CC(=O)N1 (stereo not given)
> 100 µM: all assays above
